What was measured:
[1] = system: CLDN1 mRNA; test: qPCR of CLDN1 in PHK treated with ciglitazone; format: cell-based, human; conditions: CIG 5 μM, 24 h, PHK in high Calcium media (DMEM)
Protocol: (§1) PHK were differentiated in high Calcium media (DMEM) in the presence of CIG 5 μM in DMSO or media with equivalent amount of DMSO alone, for 24 h. Total RNA was extracted from PHK using the QlAshredder spin column (Qiagen) and RNeasy RNA isolation kits (Qiagen). The quality of total RNA samples (RNA Integrity Number, RIN) was assessed using an Agilent 2100 Bioanalyzer (Agilent Technologies, Palo Alto, Calif.).
(§2) qPCR was performed using the iScript™ cDNA Synthesis kit and iQ™ SYBER Green Supermix assay system (Bio-Rad Laboratories). All PCR amplifications were carried out in triplicate on an iQ5 Multicolor real-time PCR detection system (Bio-Rad). Primers were designed and synthesized by Integrated DNA Technologies. Relative gene expression was calculated by using the 2^−ΔΔCt method, as previously described. The normalized Ct value of each sample was calculated using GAPDH as an endogenous control gene.

[2] = system: occludin mRNA; test: qPCR of occludin in PHK treated with ciglitazone; format: cell-based, human; conditions: CIG 5 μM, 24 h, PHK in high Calcium media (DMEM)
Protocol: as §1, §2

[3] = system: human cultured keratinocytes and reconstructed human epidermis; conditions: Kurasawa et al. 2009; cited from earlier work
[4] = system: human epidermis sheet; test: TEER of human epidermal sheets treated with sodium decanoate; format: cell-based; conditions: 1 mM, T0
From the text: Epidermal sheets were obtained from discarded human skin using a weck blade (0.08 inch). Epidermal samples were mounted in an adapted snap-well system (Pierro et al., “Zonula Occludens Toxin Structure-Function Analysis, Identification of the Fragment Biologically Active on Tight Junctions and of the Zonulin Receptor Binding Domain,” J. Biol.

[5] = system: claudin-1; test: Western blot of claudin-1 in PHK differentiated with Th2 cytokines; format: cell-based, human; conditions: 48 hours, 50 ng/ml, n=3
Protocol: (§3) Human keratinocytes were isolated from neonatal foreskin. Poumay et al., “Basal Detachment of the Epidermis Using Dispase: Tissue Spatial Organization and Fate of Integrin Alpha 6 Beta 4 and Hemidesmosomes,” J. Invest. Dermatol. 102:111-7 (1994), which is hereby incorporated by reference in its entirety. PHK were cultured in Keratinocyte-SFM (Invitrogen/Gibco) with 1% Pen/Strep, 0.2% Amphotericin B (Invitrogen/Gibco). To differentiate PHK, cells were grown in DMEM (Invitrogen/Gibco) with 10% heat-inactivated fetal bovine serum (Invitrogen/Gibco) and 1% Pen/Strep, 0.2% Amphotericin B (Invitrogen/Gibco). For TJ modulation experiments, the following cytokines were added alone or in combination to the differentiation media; human IL-4 (50 ng/ml; R&D system) and IL-13 (50 ng/ml; R&D system). […]
(§4) Previous studies have shown that claudin-1 expression in noncutaneous epithelial cells can be modulated by cytokines and growth factors. […] To test this possibility, PHK were differentiated in the presence or absence of Th2 cytokines, IL-4 and IL-13, and the expression of claudin-1, occludin and ZO-1 was evaluated. […]

[6] = system: primary human keratinocytes (PHK); test: Trans Epithelial Electric Resistance (TEER) of PHK; format: cell-based
Protocol: Human keratinocytes were isolated from neonatal foreskin. Poumay et al., “Basal Detachment of the Epidermis Using Dispase: Tissue Spatial Organization and Fate of Integrin Alpha 6 Beta 4 and Hemidesmosomes,” J. Invest. Dermatol. 102:111-7 (1994), which is hereby incorporated by reference in its entirety. PHK were cultured in Keratinocyte-SFM (Invitrogen/Gibco) with 1% Pen/Strep, 0.2% Amphotericin B (Invitrogen/Gibco). To differentiate PHK, cells were grown in DMEM (Invitrogen/Gibco) with 10% heat-inactivated fetal bovine serum (Invitrogen/Gibco) and 1% Pen/Strep, 0.2% Amphotericin B (Invitrogen/Gibco). For TJ modulation experiments, the following cytokines were added alone or in combination to the differentiation media; human IL-4 (50 ng/ml; R&D system) and IL-13 (50 ng/ml; R&D system).
PHK were plated at a subconfluent density of 2.5−3×10^4 cells/filter in Transwell insert and cultured in Keratinocyte-SFM media until confluent. TEER was measured using an EVOMX voltohmmeter (World Precision Instruments, Sarasota, Fla.). The resistance of cell-free filters was subtracted from each experimental value.
PHK were plated on glass coverslips at 2-3×10^5 cells/well in a 6-well plate or at 2-3×10^4 cells/filter in Transwell insert (Costar; PET membrane, 0.4 μm pore size, 6.5 mm insert) in Keratinocyte-SFM without antibiotics. The next day after plating, cells were transfected with claudin-1 specific or control (scrambled) siRNAs (Santa Cruz) using Lipofectamine™ 2000 transfection Reagent (Invitrogen). TEER and permeability experiments were conducted 48 hours after PHK were switched to differentiation media.
TEER was measured in PHK as described above. PHK were stimulated with S. aureus-derived peptidoglycan (PGN, 0.2-20 μg/ml, n=3-7) (FIG. 19A), Malp-2 (10-1000 ng/ml, n=3) (FIG. 19B), and Pam3CSK4 a TLR1/2 ligand (0.01-20 μg/ml, n=3-6) (FIG. 19C). Data are presented by analyzing the area under the TEER curve and normalized to the mean values for the control group (media alone)*p<0.05; **p<0.01.

[7] = system: occludin and ZO-1; test: Expression of occludin and ZO-1 in PHK differentiated with Th2 cytokines; format: cell-based, human; conditions: PHK differentiated with cytokine
Protocol: as §3, §4

[8] = system: CLDN1, occludin, ZO-1 and CLDN23; test: Western blot of TJ proteins in PHK treated with PGN or TLR2 ligands; format: cell-based, human; conditions: 48 hr; PGN 0.2-20 μg/ml, Pam3CSK4 0.1-20 μg/ml, MALP2 10-1000 ng/ml
Protocol: PHFK were treated with PGN (0, 0.2, 2, 20 μg/ml) (as shown in FIG. 21A), Pam3CSK4 (0, 0.1, 1, 20 μg/ml) (as shown in FIG. 21B), MALP2 (0, 10, 100, 1000 ng/ml) for 48 hr and CLDN1 (as shown in FIG. 21C), occludin, ZO-1 and CLDN23 protein levels were detected from whole cell lysates by Western blot. Quantitative protein expression was determined by densitometry of bands and normalization to the housekeeping protein ([…]). (Representative blot of n=2-3 experiments).

Sequence of claudin-1 (O95832 whole entry): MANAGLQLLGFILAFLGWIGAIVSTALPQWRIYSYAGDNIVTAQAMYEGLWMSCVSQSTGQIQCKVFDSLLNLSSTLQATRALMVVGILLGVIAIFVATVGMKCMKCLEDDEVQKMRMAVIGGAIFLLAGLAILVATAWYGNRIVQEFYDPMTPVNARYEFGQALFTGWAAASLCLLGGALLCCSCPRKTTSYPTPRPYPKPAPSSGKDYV

For `CC1(COc2ccc(CC3SC(=O)NC3=O)cc2)CCCCC1` (stereo not shown) [ciglitazone], which “CLDN1 mRNA, fold over DMSO alone” value [1] is on record?
Its value is 1.7 fold.

And the “occludin mRNA, fold” value [2]?
The value was 2.0 fold.

And the “occludin mRNA, fold” value ([2]; listed as CIG)?
The value was 2 fold.

For `CCCCCCCCCC(=O)[O-].[Na+]` [sodium decanoate], which paracellular permeability [3] is on record?
The paracellular permeability was “increased paracellular permeability”.

And the transepithelial electrical resistance [3]?
Its transepithelial electrical resistance is “decreased transepithelial electrical resistance”.

And the “TEER, dmem + SC_1” value [4]?
The value was 1.00.

What about the “TEER, dmem + SC_2” value [4] of the same molecule?
The value was 1.00.

And the “TEER, mean SC” value [4]?
Its value is 1.00.

For IL-13: IL-13 (R&D system), Th2 cytokine, which “claudin-1 expression, fold over control” value [5] is on record?
Its value is 1.6±0.3 fold.

What about the “effect on TEER in dose response experiments” value ([6]; 0.5-100 ng/ml, PHK) of the same molecule?
The value was “slight increase in TEER”.

What about the “effect on expression of occludin and ZO-1” value [7] of the same molecule?
Its value is “no effect”.

Which TJ protein expressions [8] does the source give for Malp-2 [reference compound] here?
Its TJ protein expressions is “increase TJ protein expressions”.

What about the “tight junction function (area under the TEER curve normalized to media alone)” value ([6]; PGN 0.2-20 μg/ml, Malp-2 10-1000 ng/ml, Pam3CSK4 0.01-20 μg/ml) of the same molecule?
Its value is “increase tight junction function”.

For Pam3CSK4, which TJ protein expressions [8] is on record?
Its TJ protein expressions is “increase TJ protein expressions”.

B1: IL-4: human IL-4 (R&D system), Th2 cytokine (protein, UniProt P05112 25-153, looked up)
Interleukin-4: HKCDITLQEIIKTLNSLTEQKTLCTELTVTDIFAASKNTTEKETFCRAATVLRQFYSHHEKDTRCLGATAQQFHRHKQLIRFLKRLDRNLWGLAGLNSCPVKEANQSTLENFLERLKTIMREKYSKCSS
With B1 as the molecule, how does the “claudin-1 expression, fold over control” value [5] read?
Its value is 2.1±0.4 fold.

What about the “effect on expression of occludin and ZO-1” value [7] of the same molecule?
The value was “no effect”.
